{
  "source": "patent US12213990B2",
  "about": "“A3 adenosine receptor ligand for use for achieving a fat loss effect” (CAN-FITE BIOPHARMA LTD., priority 2019, dated 2025)",
  "key": {"[1]": {"assay": "Body weight in STZ-induced diabetic rat model", "assay_type": "in vivo, Sprague Dawley rats", "settings": "STZ diabetic rats, 100 μg/kg orally twice daily for five days", "method": "Diabetes is one of the complications of obesity. Therefore, the effect of an A3AR ligand on body weight in a diabetic model was also evaluated.\nSprague Dawley male rats (8-10 week old) were administered IP with Streptozotocin (STZ) at a dose level of 60 mg/kg in citrate buffer to create a diabetic model. Only animals with blood glucose level higher than 250 mg/dL were included in the study. CF602, an allosteric A3AR ligand was administered orally twice daily for five days at a dose of 100 μg/kg. Body weight was monitored after 5 days."}, "[2]": {"tested_on": "3T3-L1 adipocytes", "assay": "3H-thymidine incorporation assay, proliferation of 3T3-L1 adipocytes", "assay_type": "cell-based", "settings": "3T3-L1 cells", "method": "3T3-L1 pre-adipocytes were purchased from American Type Culture Collection (ATCC; Manassas, VA, USA). The pre-adipocytes were maintained in Dulbecco's modified Eagle's medium (DMEM; Hyclone, South Logan, UT, USA), and supplemented with 10% newborn calf serum (Hyclone) and antibiotics (Hyclone) at 37° C. in 5% CO2. To induce adipocyte differentiation, the pre-adipocytes were plated at 24-well plates. After confluence, the medium was changed and 10 μg/ml insulin, 1 μM DEX and 0.5 mM IBMX was added. Two days later the media were changed to the basal medium supplemented with 10% FBS and 10 μg/ml insulin. The media were replaced every 2 days for a period of 8-14 days. To evaluate cell proliferation, ^3H-thymidine incorporation assay was used. The 3T3-L1 cells (5,000 cells/well) were incubated with 5 or 10 nM CF102 96-well plate for 48 hours. Each well was pulsed with […] ^3H-thymidine for the last 24 hours. Cells were harvested and the ^3H-thymidine uptake was determined in an LKB liquid scintillation counter (LKB, Piscataway, NJ, USA)."}, "[3]": {"tested_on": "3T3-L1 adipocytes", "assay": "Oil-Red-O staining, accumulation of lipid droplets in 3T3-L1 adipocytes", "assay_type": "cell-based", "settings": "5 nM CF102, 48 h, p=0.01", "method": "Pre-adipocytes were incubated in a differentiated medium (DMEM high glucose+10% FBS) containing 10 μg/ml insulin, 1 μM DEX and 0.5 mM IBMX and treated with 5 nM CF102 for 48 h to evaluate its potential anti-adipogenic effect. The accumulation of lipid droplets was evaluated by staining with Oil-Red-O. Briefly, cells were washed with PBS, incubated with 3.7% HCHO for 1 hr and then, incubated with Oil-Red-O solution for 45 min. Cells were washed very well to remove the excess of Oil-Red-O, visualized and photographed under an Olympus microscope with a Leica camera. For the quantification of lipid accumulation, cells were dissolved in isopropanol and the optical density was read on a Dynatech Corp. Microelisa reader (Chantilly, VA) at 595 nm. The degree accumulation of lipid droplets was proportional to the optical density."}, "[4]": {"assay": "Body weight in diet-induced obesity mouse model (HFD vs. regular diet)", "assay_type": "in vivo, C57BL/6J mice", "settings": "HFD 12 weeks, then 100 μg/Kg daily oral for 4 weeks", "from_the_text": "Because complications from obesity such as diabetes and cardiovascular disease usually require decades, surrogate animal models are important for studying the molecular aspects of obesity and its pathophysiological effects. One of these models that are gaining increasing attention is the diet-induced obesity model in mouse. The present protocol is designed to evaluate effects of CF102 in an in vivo mouse model of Diet-Induced obesity. The mice utilized are C57BL/6J males, 4-6 weeks old (The Jackson Laboratory, stock 000664). 60 kcal % fat diet (Research Diets, D12492i) Group I-II: Naïve animals (n=20) were fed with a regular diet, served as a control group and were defined as ‘Lean Diet’ After 12 weeks, mice were divided into 2 groups (n=10 per group), the first was treated with a daily oral administration of CF102 (Can-Fite BioPharma, Cat #A14402-10; 100 μg/Kg) for 4 weeks and the second with vehicle only. Group III-IV—Naïve mice (n=20) were fed with HFD for 12 weeks. After 12 weeks, mice were divided into 2 groups (n=10 per group), the first was treated with daily oral administration of CF102 (Can-Fite BioPharma, Cat #A14402-10; 100 μg/Kg) for 4 weeks and the second with vehicle only."}},
  "data": [
    {"smiles": "Clc1ccc(Nc2nc3ccccc3c3[nH]c(C4CCCCC4)nc23)cc1Cl", "note": "[CF602, N-(3,4-Dichloro-phenyl)-2-cyclohexyl-1H-imidazo[4,5-c]quinolin-4-amine]", "values": [
      {"measurement": "weight change from baseline (body weight)", "setting": "[1]", "result": "significant (p<0.03) decrease in body weight"}
    ]},
    {"smiles": "CNC(=O)[C@H]1O[C@@H](n2cnc3c(NCc4cccc(I)c4)nc(Cl)nc32)[C@H](O)[C@@H]1O", "note": "[CF102, 2-chloro-N^6-(3-iodobenzyl)-adenosine-5′-N-methyluronamide]", "values": [
      {"measurement": "reduction of adipocyte proliferation compared to the control measurement", "setting": "[2]; 5 nM CF102, 48 hours", "result": "more than 20%"},
      {"measurement": "reduction of adipocyte proliferation compared to the control measurement", "setting": "[2]; 10 nM CF102, 48 hours", "result": "> 40", "unit": "%"},
      {"measurement": "lipid accumulation (OD value at 595 nm) vs. vehicle treated control", "setting": "[3]", "result": "inhibition in lipid accumulation"},
      {"measurement": "weight loss, mice under HFD", "setting": "[4]", "result": "significant (p<0.001) weight loss effect"}
    ]}
  ]
}
